Assay results reported in patent US20030138429A1, “Compositions and methods for inhibiting metastasis” (priority 2001, published 2003).

Each substance was assayed on 1-LN cells (assay: MMP-9 mRNA levels in 1-LN cells by RT-PCR). Settings: Yes/No.
Assay type: cell-based, human
Description: RNA Isolation—To determine changes in MMP-9 mRNA induced by Pg, 1-LN cells were grown in 48 well culture plates (1.7×10^6 cells/well) and incubated with each individual Pg 2 glycoform for 24 h at 37° C. Cell monolayers were then rinsed twice in serum-free RPMI 1640 and total RNA extracted by a single-step method, using RNeach Mini kit (Qiagen, Chatsworth, Calif.), according to the manufacturer's instructions.
Measurement of MMP-9 mRNA Levels by Reverse Transcription-PCR (RT-PCR)—Total RNA was reverse transcribed with 1 μg of RNA in a 20 μl reaction mixture, using M-MLV reverse transcriptase (200 U) and oligo d(T) as primer for 1 h at 42° C. The resulting cDNA (5 μl) was used as a template and a […] segment of the MMP-9 cDNA was amplified, using a 24-mer upstream primer (5′-[…]-3′), identical to positions 2079-2102 and a 29-mer downstream primer (5′-[…]-3′) complimentary to positions 2270-2298 of the human MMP-9 mRNA [45]. A 600-bp segment of the glyceraldehyde phosphate dehydrogenase (GAPDH, constitutive internal control) cDNA was co-amplified, using a 24-mer upstream primer (5′-[…]), identical to positions 212-235 and a 24-mer downstream primer (5′-[…]-3′), complimentary to positions 786-809 of the human GAPDH mRNA [46]. Amplification was carried out in a Techne Thermal Cycler PHC-3 for 28 cycles (one cycle=94° C. for 45 s, 60° C. for 45 s, and 72° C. for 45 s). PCR products were analyzed on a 1.2% agarose-ethidium bromide gel. The gels were photographed and the intensity of the individual MMP-9 and GAPDH mRNA bands measured by laser densitometric scanning, using a Molecular Dynamics Personal Densitometer. Changes in MMP-9 mRNA levels were expressed as a relative ratio of MMP-9 mRNA/GAPDH mRNA band intensities.

Substance | MMP-9 EXPRESSION mRNA
Pg 2α: glycoform of human plasminogen type 2 purified from plasma; 1.3 mol sialic acid/mol Pg | No
Pg 2β: glycoform of human plasminogen type 2 purified from plasma; 2.2 mol sialic acid/mol Pg | No
Pg 2γ: glycoform of human plasminogen type 2 purified from plasma; 2.95 mol sialic acid/mol Pg | No
Pg 2δ: glycoform of human plasminogen type 2 purified from plasma; 5.77 mol sialic acid/mol Pg | No
Pg 2ε: glycoform of human plasminogen type 2 purified from plasma; 5.34 mol sialic acid/mol Pg | Yes

Same assay, conditions: glycoform 0.1 μM, 24 h, versus serum-free medium alone, in words

Substance | Relative MMP-9 mRNA levels (ratio MMP-9 mRNA/GAPDH mRNA)
Pg 2α: glycoform of human plasminogen type 2 purified from plasma; 1.3 mol sialic acid/mol Pg | did not show a significant change
Pg 2β: glycoform of human plasminogen type 2 purified from plasma; 2.2 mol sialic acid/mol Pg | did not show a significant change
Pg 2γ: glycoform of human plasminogen type 2 purified from plasma; 2.95 mol sialic acid/mol Pg | did not show a significant change
Pg 2δ: glycoform of human plasminogen type 2 purified from plasma; 5.77 mol sialic acid/mol Pg | did not show a significant change
Pg 2ε: glycoform of human plasminogen type 2 purified from plasma; 5.34 mol sialic acid/mol Pg | significant increase
